Data published in article PMC9571063 (Molecules, 2022).

Legend:
Experiment in all cases: KINOMEscan
Format in all cases: binding
Conditions in all cases: read-out: Percent Control
[1] = target: T1, ABL1(F317I)-phosphorylated (Homo sapiens, UniProt P00519, F317I)
T1 construct: purchased Eurofins DiscoverX KINOMEscan (scanMAX 468)

AURKA = target: T2, AURKA (Homo sapiens, UniProt O14965)
T2 construct: purchased Eurofins DiscoverX KINOMEscan (scanMAX 468)

AURKC = target: T3, AURKC (Homo sapiens, UniProt Q9UQB9)
T3 construct: purchased Eurofins DiscoverX KINOMEscan (scanMAX 468)

BLK = target: T4, BLK (Homo sapiens, UniProt P51451)
T4 construct: purchased Eurofins DiscoverX KINOMEscan (scanMAX 468)

BRAF = target: T5, BRAF (Homo sapiens, UniProt P15056)
T5 construct: purchased Eurofins DiscoverX KINOMEscan (scanMAX 468)

BTK = target: T6, BTK (Homo sapiens, UniProt Q06187)
T6 construct: purchased Eurofins DiscoverX KINOMEscan (scanMAX 468)
T6 sequence (Q06187 whole entry): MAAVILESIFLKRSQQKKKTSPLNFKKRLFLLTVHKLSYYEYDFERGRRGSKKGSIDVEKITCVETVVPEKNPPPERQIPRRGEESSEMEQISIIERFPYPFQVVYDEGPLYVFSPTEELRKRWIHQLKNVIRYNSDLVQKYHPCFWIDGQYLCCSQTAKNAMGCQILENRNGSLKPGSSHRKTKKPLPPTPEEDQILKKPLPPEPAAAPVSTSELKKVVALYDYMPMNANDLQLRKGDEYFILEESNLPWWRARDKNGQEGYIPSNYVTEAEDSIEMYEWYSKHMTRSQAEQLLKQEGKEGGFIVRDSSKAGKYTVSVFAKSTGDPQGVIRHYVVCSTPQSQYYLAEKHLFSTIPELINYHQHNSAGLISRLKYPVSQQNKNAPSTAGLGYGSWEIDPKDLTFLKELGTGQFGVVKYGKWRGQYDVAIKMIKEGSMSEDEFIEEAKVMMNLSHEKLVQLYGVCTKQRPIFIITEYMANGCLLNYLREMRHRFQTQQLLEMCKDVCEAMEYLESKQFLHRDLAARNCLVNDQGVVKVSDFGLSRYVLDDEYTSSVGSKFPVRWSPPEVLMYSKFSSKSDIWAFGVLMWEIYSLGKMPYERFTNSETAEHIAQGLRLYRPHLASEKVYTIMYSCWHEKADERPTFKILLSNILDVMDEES

CAMK1 = target: T7, CAMK1 (Homo sapiens, UniProt Q14012)
T7 construct: purchased Eurofins DiscoverX KINOMEscan (scanMAX 468)

CAMK1B = target: T8, CAMK1B (Homo sapiens, UniProt Q6P2M8)
T8 construct: purchased Eurofins DiscoverX KINOMEscan (scanMAX 468)

CASK = target: T9, CASK (Homo sapiens, UniProt O14936)
T9 construct: purchased Eurofins DiscoverX KINOMEscan (scanMAX 468)

CHEK2 = target: T10, CHEK2 (Homo sapiens, UniProt O96017)
T10 construct: purchased Eurofins DiscoverX KINOMEscan (scanMAX 468)

CSNK1G2 = target: T11, CSNK1G2 (Homo sapiens, UniProt P78368)
T11 construct: purchased Eurofins DiscoverX KINOMEscan (scanMAX 468)

CSNK2A2 = target: T12, CSNK2A2 (Homo sapiens, UniProt P19784)
T12 construct: purchased Eurofins DiscoverX KINOMEscan (scanMAX 468)

DAPK3 = target: T13, DAPK3 (Homo sapiens, UniProt O43293)
T13 construct: purchased Eurofins DiscoverX KINOMEscan (scanMAX 468)

EGFR(L858R,T790M) = target: T14, EGFR(L858R,T790M) (Homo sapiens, UniProt P00533, L858R/T790M)
T14 construct: purchased Eurofins DiscoverX KINOMEscan (scanMAX 468)

EPHA1 = target: T15, EPHA1 (Homo sapiens, UniProt P21709)
T15 construct: purchased Eurofins DiscoverX KINOMEscan (scanMAX 468)

EPHA3 = target: T16, EPHA3 (Homo sapiens, UniProt P29320)
T16 construct: purchased Eurofins DiscoverX KINOMEscan (scanMAX 468)

ERK5 = target: T17, ERK5 (Homo sapiens, UniProt Q13164)
T17 construct: purchased Eurofins DiscoverX KINOMEscan (scanMAX 468)

FLT3(D835V) = target: T18, FLT3(D835V) (Homo sapiens, UniProt P36888, D835V)
T18 construct: purchased Eurofins DiscoverX KINOMEscan (scanMAX 468)

GAK = target: T19, GAK (Homo sapiens, UniProt O14976)
T19 construct: purchased Eurofins DiscoverX KINOMEscan (scanMAX 468)

HIPK3 = target: T20, HIPK3 (Homo sapiens, UniProt Q9H422)
T20 construct: purchased Eurofins DiscoverX KINOMEscan (scanMAX 468)

KIT(V559D) = target: T21, KIT(V559D) (Homo sapiens, UniProt P10721, V559D)
T21 construct: purchased Eurofins DiscoverX KINOMEscan (scanMAX 468)

LZK = target: T22, LZK (Homo sapiens, UniProt O43283)
T22 construct: purchased Eurofins DiscoverX KINOMEscan (scanMAX 468)

MAP3K2 = target: T23, MAP3K2 (Homo sapiens, UniProt Q9Y2U5)
T23 construct: purchased Eurofins DiscoverX KINOMEscan (scanMAX 468)

MAP4K2 = target: T24, MAP4K2 (Homo sapiens, UniProt Q12851)
T24 construct: purchased Eurofins DiscoverX KINOMEscan (scanMAX 468)
T24 sequence (Q12851 whole entry): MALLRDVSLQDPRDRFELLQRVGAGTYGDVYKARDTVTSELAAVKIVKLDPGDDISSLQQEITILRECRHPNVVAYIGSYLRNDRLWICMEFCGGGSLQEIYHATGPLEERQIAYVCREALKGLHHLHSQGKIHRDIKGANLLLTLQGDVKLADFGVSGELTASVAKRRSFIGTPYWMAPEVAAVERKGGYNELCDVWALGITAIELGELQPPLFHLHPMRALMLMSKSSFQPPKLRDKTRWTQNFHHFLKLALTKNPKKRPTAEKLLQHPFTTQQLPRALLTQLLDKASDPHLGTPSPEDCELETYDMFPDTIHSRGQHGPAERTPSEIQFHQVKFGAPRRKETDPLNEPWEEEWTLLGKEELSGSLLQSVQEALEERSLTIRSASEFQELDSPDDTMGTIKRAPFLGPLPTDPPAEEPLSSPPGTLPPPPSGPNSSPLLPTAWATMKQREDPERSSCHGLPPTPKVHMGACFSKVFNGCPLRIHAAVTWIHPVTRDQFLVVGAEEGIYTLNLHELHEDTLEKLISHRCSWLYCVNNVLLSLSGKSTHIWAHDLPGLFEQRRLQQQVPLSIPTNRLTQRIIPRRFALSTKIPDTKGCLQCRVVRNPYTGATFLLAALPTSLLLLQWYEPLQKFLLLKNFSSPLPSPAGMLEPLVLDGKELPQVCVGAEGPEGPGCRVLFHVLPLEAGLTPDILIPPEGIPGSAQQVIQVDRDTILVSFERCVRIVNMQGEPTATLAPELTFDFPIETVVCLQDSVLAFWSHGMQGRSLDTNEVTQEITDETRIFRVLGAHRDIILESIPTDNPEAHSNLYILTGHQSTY

MEK1 = target: T25, MEK1 (Homo sapiens, UniProt Q02750)
T25 construct: purchased Eurofins DiscoverX KINOMEscan (scanMAX 468)

MEK5 = target: T26, MEK5 (Homo sapiens, UniProt Q13163)
T26 construct: purchased Eurofins DiscoverX KINOMEscan (scanMAX 468)
T26 sequence (Q13163 whole entry): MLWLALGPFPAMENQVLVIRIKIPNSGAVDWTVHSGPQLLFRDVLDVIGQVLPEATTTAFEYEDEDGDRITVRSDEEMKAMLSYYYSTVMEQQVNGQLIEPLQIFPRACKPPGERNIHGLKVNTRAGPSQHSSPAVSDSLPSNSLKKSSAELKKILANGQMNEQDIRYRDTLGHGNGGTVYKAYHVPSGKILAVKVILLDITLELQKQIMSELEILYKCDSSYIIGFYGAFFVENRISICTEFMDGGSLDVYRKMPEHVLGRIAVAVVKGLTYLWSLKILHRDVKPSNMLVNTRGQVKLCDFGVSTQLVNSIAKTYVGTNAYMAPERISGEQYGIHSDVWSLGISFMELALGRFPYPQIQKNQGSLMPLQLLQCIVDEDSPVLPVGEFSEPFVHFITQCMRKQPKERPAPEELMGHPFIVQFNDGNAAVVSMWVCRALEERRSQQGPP

MET(M1250T) = target: T27, MET(M1250T) (Homo sapiens, UniProt P08581, M1250T)
T27 construct: purchased Eurofins DiscoverX KINOMEscan (scanMAX 468)

NDR1 = target: T28, NDR1 (Homo sapiens, UniProt Q15208)
T28 construct: purchased Eurofins DiscoverX KINOMEscan (scanMAX 468)

NEK3 = target: T29, NEK3 (Homo sapiens, UniProt P51956)
T29 construct: purchased Eurofins DiscoverX KINOMEscan (scanMAX 468)

NEK6 = target: T30, NEK6 (Homo sapiens, UniProt Q9HC98)
T30 construct: purchased Eurofins DiscoverX KINOMEscan (scanMAX 468)
T30 sequence (Q9HC98 whole entry): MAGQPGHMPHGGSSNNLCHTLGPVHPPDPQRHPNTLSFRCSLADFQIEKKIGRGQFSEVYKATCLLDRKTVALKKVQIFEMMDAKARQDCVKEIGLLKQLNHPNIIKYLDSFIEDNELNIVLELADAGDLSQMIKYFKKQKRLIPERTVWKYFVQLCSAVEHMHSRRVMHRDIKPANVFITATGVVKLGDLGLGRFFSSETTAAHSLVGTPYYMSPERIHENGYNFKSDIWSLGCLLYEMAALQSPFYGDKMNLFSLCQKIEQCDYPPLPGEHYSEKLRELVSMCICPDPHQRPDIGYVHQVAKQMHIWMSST

PAK2 = target: T31, PAK2 (Homo sapiens, UniProt Q13177)
T31 construct: purchased Eurofins DiscoverX KINOMEscan (scanMAX 468)
T31 sequence (Q13177 whole entry): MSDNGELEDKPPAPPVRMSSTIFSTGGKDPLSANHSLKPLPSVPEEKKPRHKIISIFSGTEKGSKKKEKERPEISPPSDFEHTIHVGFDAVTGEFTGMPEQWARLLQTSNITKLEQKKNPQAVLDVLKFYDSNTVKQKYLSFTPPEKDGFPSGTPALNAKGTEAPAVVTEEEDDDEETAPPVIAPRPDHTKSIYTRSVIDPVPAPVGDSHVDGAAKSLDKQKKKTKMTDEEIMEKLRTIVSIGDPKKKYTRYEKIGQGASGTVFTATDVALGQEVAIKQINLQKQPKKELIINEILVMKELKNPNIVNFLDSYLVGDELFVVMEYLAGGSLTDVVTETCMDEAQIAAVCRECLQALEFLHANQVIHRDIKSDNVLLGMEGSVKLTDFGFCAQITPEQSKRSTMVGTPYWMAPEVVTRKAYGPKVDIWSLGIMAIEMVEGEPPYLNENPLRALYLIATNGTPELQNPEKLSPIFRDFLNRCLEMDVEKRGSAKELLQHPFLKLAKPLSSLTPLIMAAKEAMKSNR

PIK3CA(C420R) = target: T32, PIK3CA(C420R) (Homo sapiens, UniProt P42336, C420R)
T32 construct: purchased Eurofins DiscoverX KINOMEscan (scanMAX 468)

PIK4CB = target: T33, PIK4CB (Homo sapiens, UniProt Q9UBF8)
T33 construct: purchased Eurofins DiscoverX KINOMEscan (scanMAX 468)

PRKCD = target: T34, PRKCD (Homo sapiens, UniProt Q05655)
T34 construct: purchased Eurofins DiscoverX KINOMEscan (scanMAX 468)

PRKD3 = target: T35, PRKD3 (Homo sapiens, UniProt O94806)
T35 construct: purchased Eurofins DiscoverX KINOMEscan (scanMAX 468)
T35 sequence (O94806 whole entry): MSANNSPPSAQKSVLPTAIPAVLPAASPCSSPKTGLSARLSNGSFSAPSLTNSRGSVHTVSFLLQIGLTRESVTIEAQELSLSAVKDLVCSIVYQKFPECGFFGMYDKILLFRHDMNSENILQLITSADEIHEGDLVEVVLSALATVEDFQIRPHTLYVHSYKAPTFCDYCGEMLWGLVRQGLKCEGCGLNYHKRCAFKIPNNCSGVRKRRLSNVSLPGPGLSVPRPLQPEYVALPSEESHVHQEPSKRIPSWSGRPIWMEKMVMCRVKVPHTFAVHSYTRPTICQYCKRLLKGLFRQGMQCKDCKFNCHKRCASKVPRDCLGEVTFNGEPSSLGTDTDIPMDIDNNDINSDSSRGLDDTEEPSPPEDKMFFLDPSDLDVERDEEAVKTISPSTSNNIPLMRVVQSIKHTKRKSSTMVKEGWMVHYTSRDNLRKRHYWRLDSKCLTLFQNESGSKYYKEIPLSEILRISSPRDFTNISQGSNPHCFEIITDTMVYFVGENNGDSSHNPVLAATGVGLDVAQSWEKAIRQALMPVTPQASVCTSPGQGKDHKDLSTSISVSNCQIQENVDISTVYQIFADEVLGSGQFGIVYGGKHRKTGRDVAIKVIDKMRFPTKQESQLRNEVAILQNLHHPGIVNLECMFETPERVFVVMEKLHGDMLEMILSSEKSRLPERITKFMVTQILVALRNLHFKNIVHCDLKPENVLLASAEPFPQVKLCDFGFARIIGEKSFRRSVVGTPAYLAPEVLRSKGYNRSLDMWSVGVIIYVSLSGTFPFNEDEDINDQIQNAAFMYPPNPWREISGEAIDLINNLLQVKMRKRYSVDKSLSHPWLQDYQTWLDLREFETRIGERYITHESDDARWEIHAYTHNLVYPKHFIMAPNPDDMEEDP

QSK = target: T36, QSK (Homo sapiens, UniProt Q9Y2K2)
T36 construct: purchased Eurofins DiscoverX KINOMEscan (scanMAX 468)

[2] = target: T37, RPS6KA5(Kin.Dom.2-C-terminal) (Homo sapiens, UniProt O75582)
T37 construct: RPS6KA5(Kin.Dom.2-C-terminal); purchased Eurofins DiscoverX KINOMEscan (scanMAX 468)

[3] = target: T38, RSK2(Kin.Dom.2-C-terminal) (Homo sapiens, UniProt P51812)
T38 construct: RSK2(Kin.Dom.2-C-terminal); purchased Eurofins DiscoverX KINOMEscan (scanMAX 468)

SRPK1 = target: T39, SRPK1 (Homo sapiens, UniProt Q96SB4)
T39 construct: purchased Eurofins DiscoverX KINOMEscan (scanMAX 468)

TAOK3 = target: T40, TAOK3 (Homo sapiens, UniProt Q9H2K8)
T40 construct: purchased Eurofins DiscoverX KINOMEscan (scanMAX 468)

ULK2 = target: T41, ULK2 (Homo sapiens, UniProt Q8IYT8)
T41 construct: purchased Eurofins DiscoverX KINOMEscan (scanMAX 468)

ZAP70 = target: T42, ZAP70 (Homo sapiens, UniProt P43403)
T42 construct: purchased Eurofins (KINOMEscan, DiscoverX)

T1 sequence (P00519 whole entry F317I): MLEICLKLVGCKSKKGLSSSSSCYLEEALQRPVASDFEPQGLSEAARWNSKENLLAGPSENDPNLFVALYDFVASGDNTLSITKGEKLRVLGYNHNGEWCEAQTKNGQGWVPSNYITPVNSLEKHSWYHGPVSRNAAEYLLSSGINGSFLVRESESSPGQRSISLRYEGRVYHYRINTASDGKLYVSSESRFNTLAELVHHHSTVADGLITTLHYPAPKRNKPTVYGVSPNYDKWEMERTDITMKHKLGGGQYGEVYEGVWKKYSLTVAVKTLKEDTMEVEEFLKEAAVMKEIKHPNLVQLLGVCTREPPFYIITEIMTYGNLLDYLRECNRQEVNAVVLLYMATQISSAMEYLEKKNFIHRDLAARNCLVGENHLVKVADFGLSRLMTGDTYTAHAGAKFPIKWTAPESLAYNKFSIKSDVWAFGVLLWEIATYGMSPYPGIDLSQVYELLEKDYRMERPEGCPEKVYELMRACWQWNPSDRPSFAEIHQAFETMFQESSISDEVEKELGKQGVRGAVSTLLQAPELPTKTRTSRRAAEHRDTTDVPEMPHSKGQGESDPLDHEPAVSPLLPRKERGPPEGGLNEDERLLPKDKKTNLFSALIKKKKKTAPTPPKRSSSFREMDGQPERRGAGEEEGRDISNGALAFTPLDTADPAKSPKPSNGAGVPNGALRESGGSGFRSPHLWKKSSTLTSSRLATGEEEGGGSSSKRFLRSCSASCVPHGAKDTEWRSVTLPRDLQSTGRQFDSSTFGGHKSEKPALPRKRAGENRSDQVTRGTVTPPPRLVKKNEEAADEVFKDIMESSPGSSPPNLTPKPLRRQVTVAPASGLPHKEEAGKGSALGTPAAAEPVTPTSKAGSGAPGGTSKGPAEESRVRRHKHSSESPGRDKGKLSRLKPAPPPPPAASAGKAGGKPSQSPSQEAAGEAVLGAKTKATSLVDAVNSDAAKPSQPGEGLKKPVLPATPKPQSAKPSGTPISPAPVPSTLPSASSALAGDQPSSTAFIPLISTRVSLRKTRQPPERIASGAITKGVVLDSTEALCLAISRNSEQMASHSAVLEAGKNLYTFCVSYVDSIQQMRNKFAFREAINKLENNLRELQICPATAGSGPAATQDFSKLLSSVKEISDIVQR

## Cc1ccc(-n2cc(COc3cccc4cnc(Nc5cccc(Cl)c5)nc34)nn2)c([N+](=O)[O-])c1 [DB18]
[1]
  remaining binding at 1 µM: 100%
AURKA
  remaining binding at 1 µM: 100%
AURKC
  remaining binding at 1 µM: 100%
BLK
  remaining binding at 1 µM: 100%
BRAF
  remaining binding at 1 µM: 93%
BTK
  remaining binding at 1 µM: 100%
CAMK1
  remaining binding at 1 µM: 100%
CAMK1B
  remaining binding at 1 µM: 86%
CASK
  remaining binding at 1 µM: 99%
CHEK2
  remaining binding at 1 µM: 100%
CSNK1G2
  remaining binding at 1 µM: 90%
CSNK2A2
  remaining binding at 1 µM: 61%
DAPK3
  remaining binding at 1 µM: 98%
EGFR(L858R,T790M)
  remaining binding at 1 µM: 100%
EPHA1
  remaining binding at 1 µM: 95%
EPHA3
  remaining binding at 1 µM: 100%
ERK5
  remaining binding at 1 µM: 100%
FLT3(D835V)
  remaining binding at 1 µM: 67%
GAK
  remaining binding at 1 µM: 100%
HIPK3
  remaining binding at 1 µM: 46%
KIT(V559D)
  remaining binding at 1 µM: 100%
LZK
  remaining binding at 1 µM: 100%
MAP3K2
  remaining binding at 1 µM: 97%
MAP4K2
  remaining binding at 1 µM: 100%
MEK1
  remaining binding at 1 µM: 97%
MEK5
  remaining binding at 1 µM: 95%
MET(M1250T)
  remaining binding at 1 µM: 88%
NDR1
  remaining binding at 1 µM: 89%
NEK3
  remaining binding at 1 µM: 83%
NEK6
  remaining binding at 1 µM: 100%
PAK2
  remaining binding at 1 µM: 100%
PIK3CA(C420R)
  remaining binding at 1 µM: 100%
PIK4CB
  remaining binding at 1 µM: 94%
PRKCD
  remaining binding at 1 µM: 100%
PRKD3
  remaining binding at 1 µM: 100%
QSK
  remaining binding at 1 µM: 96%
[2]
  remaining binding at 1 µM: 100%
[3]
  remaining binding at 1 µM: 100%
SRPK1
  remaining binding at 1 µM: 100%
TAOK3
  remaining binding at 1 µM: 100%
ULK2
  remaining binding at 1 µM: 100%
ZAP70
  remaining binding at 1 µM: 100%
